Assay results: the supplement of paper PMC10307832

Legend:
Assay in all cases: relative viability (nuclei count vs DMSO), 5 days (fraction); higher = more cells survive
CAL-12T = tested on: CAL-12T
How it was run: (§1)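 Each reported value is a median over duplicate plates. It expresses relative viability: treated-well nuclei count divided by vehicle-well nuclei count. Lung cancer cell lines in 1536-well plates were dosed by pin tool a day after seeding, alone with one drug or with a fixed anchor-drug dose plus five library-drug doses (not always all listed) in √10 steps, and nuclei were counted after 5 days.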

NCI-H1650 = tested on: NCI-H1650
How it was run: as §1

NCI-H2405 = tested on: NCI-H2405
How it was run: as §1

LK-2 = tested on: LK-2
How it was run: as §1

RERF-LC-KJ = tested on: RERF-LC-KJ
How it was run: as §1

NCI-H2342 = tested on: NCI-H2342
How it was run: as §1

NCI-H1755 = tested on: NCI-H1755
How it was run: as §1

LCLC-97TM1 = tested on: LCLC-97TM1
How it was run: as §1

NCI-H1355 = tested on: NCI-H1355
How it was run: as §1

NCI-H1734 = tested on: NCI-H1734
How it was run: as §1

PC-3 [JPC-3] = tested on: PC-3 [JPC-3]
How it was run: as §1

NCI-H661 = tested on: NCI-H661
How it was run: as §1

HCC-827 = tested on: HCC-827
How it was run: as §1

NCI-H520 = tested on: NCI-H520
How it was run: as §1

H3255 = tested on: H3255
How it was run: as §1

PC-14 = tested on: PC-14
How it was run: as §1

EKVX = tested on: EKVX
How it was run: as §1

NCI-H1975 = tested on: NCI-H1975
How it was run: as §1

NCI-H322M = tested on: NCI-H322M
How it was run: as §1

NCI-H2228 = tested on: NCI-H2228
How it was run: as §1

HCC-15 = tested on: HCC-15
How it was run: as §1

For `COc1nc(C)cnc1NS(=O)(=O)c1cccnc1-c1ccc(-c2nnco2)cc1` [Zibotentan] + CC(=O)Nc1cccc(-n2c(=O)n(C3CC3)c(=O)c3c(Nc4ccc(I)cc4F)n(C)c(=O)c(C)c32)c1 [Trametinib] (partner 0.02 µM), the relative viability (CAL-12T; first compound 0.08 µM) was 0.34, the relative viability (CAL-12T; first compound 0.253 µM) was 0.303 and the relative viability (CAL-12T; first compound 0.8 µM) was 0.349. It also gave a relative viability (CAL-12T; first compound 2.53 µM) of 0.337, a relative viability (NCI-H1650; first compound 0.08 µM) of 0.533 and a relative viability (NCI-H1650; first compound 0.8 µM) of 0.563. It also gave a relative viability (NCI-H1650; first compound 2.53 µM) of 0.557, a relative viability (NCI-H2405; first compound 0.08 µM) of 0.67 and a relative viability (NCI-H2405; first compound 0.253 µM) of 0.599. The relative viability (NCI-H2405; first compound 0.8 µM) was 0.648, the relative viability (NCI-H2405; first compound 2.53 µM) was 0.657 and the relative viability (LK-2; first compound 0.08 µM) was 0.881. For the same molecule, the relative viability (LK-2; first compound 0.253 µM) was 0.793, the relative viability (LK-2; first compound 0.8 µM) was 0.83 and the relative viability (LK-2; first compound 2.53 µM) was 0.703. For the same molecule, the relative viability (RERF-LC-KJ; first compound 0.08 µM) was 0.96, the relative viability (RERF-LC-KJ; first compound 0.253 µM) was 0.842 and the relative viability (RERF-LC-KJ; first compound 0.8 µM) was 0.804. For the same molecule, the relative viability (RERF-LC-KJ; first compound 2.53 µM) was 0.888, the relative viability (NCI-H2342; first compound 0.08 µM) was 0.848 and the relative viability (NCI-H2342; first compound 0.253 µM) was 0.78. The relative viability (NCI-H2342; first compound 0.8 µM) was 0.844, the relative viability (NCI-H2342; first compound 2.53 µM) was 1.16 and the relative viability (NCI-H1755; first compound 0.08 µM) was 0.737. The relative viability (NCI-H1755; first compound 0.253 µM) was 0.745, the relative viability (NCI-H1755; first compound 0.8 µM) was 0.797 and the relative viability (NCI-H1755; first compound 2.53 µM) was 0.792. For the same molecule, the relative viability (LCLC-97TM1; first compound 0.08 µM) was 0.217, the relative viability (LCLC-97TM1; first compound 0.253 µM) was 0.213 and the relative viability (LCLC-97TM1; first compound 0.8 µM) was 0.198. The relative viability (LCLC-97TM1; first compound 2.53 µM) was 0.2, the relative viability (NCI-H1355; first compound 0.08 µM) was 0.399 and the relative viability (NCI-H1355; first compound 0.253 µM) was 0.437. The relative viability (NCI-H1355; first compound 0.8 µM) was 0.402, the relative viability (NCI-H1355; first compound 2.53 µM) was 0.438 and the relative viability (NCI-H1734; first compound 0.08 µM) was 0.721. It also gave a relative viability (NCI-H1734; first compound 0.253 µM) of 0.705, a relative viability (NCI-H1734; first compound 0.8 µM) of 0.647 and a relative viability (NCI-H1734; first compound 2.53 µM) of 0.733. The relative viability (PC-3 [JPC-3]; first compound 0.08 µM) was 0.628, the relative viability (PC-3 [JPC-3]; first compound 0.253 µM) was 0.508 and the relative viability (PC-3 [JPC-3]; first compound 0.8 µM) was 0.723. For the same molecule, the relative viability (PC-3 [JPC-3]; first compound 2.53 µM) was 0.715, the relative viability (NCI-H661; first compound 0.08 µM) was 0.574 and the relative viability (NCI-H661; first compound 0.253 µM) was 0.495. The relative viability (NCI-H661; first compound 0.8 µM) was 0.589, the relative viability (NCI-H661; first compound 2.53 µM) was 0.601 and the relative viability (HCC-827; first compound 0.08 µM) was 0.503. For the same molecule, the relative viability (HCC-827; first compound 0.253 µM) was 0.529, the relative viability (HCC-827; first compound 0.8 µM) was 0.491 and the relative viability (HCC-827; first compound 2.53 µM) was 0.548. It also gave a relative viability (NCI-H520; first compound 0.08 µM) of 0.803, a relative viability (NCI-H520; first compound 0.253 µM) of 0.704 and a relative viability (NCI-H520; first compound 0.8 µM) of 0.631. It also gave a relative viability (NCI-H520; first compound 2.53 µM) of 0.79, a relative viability (H3255; first compound 0.08 µM) of 0.659 and a relative viability (H3255; first compound 0.253 µM) of 0.607. The relative viability (H3255; first compound 0.8 µM) was 0.667, the relative viability (H3255; first compound 2.53 µM) was 0.626 and the relative viability (PC-14; first compound 0.08 µM) was 0.833. For the same molecule, the relative viability (PC-14; first compound 0.253 µM) was 0.752, the relative viability (PC-14; first compound 0.8 µM) was 0.733 and the relative viability (PC-14; first compound 2.53 µM) was 0.735. It also gave a relative viability (EKVX; first compound 0.08 µM) of 0.33, a relative viability (EKVX; first compound 0.253 µM) of 0.364 and a relative viability (EKVX; first compound 0.8 µM) of 0.315. It also gave a relative viability (EKVX; first compound 2.53 µM) of 0.321, a relative viability (NCI-H1975; first compound 0.08 µM) of 0.336 and a relative viability (NCI-H1975; first compound 0.253 µM) of 0.355. It also gave a relative viability (NCI-H1975; first compound 0.8 µM) of 0.358, a relative viability (NCI-H1975; first compound 2.53 µM) of 0.34 and a relative viability (NCI-H322M; first compound 0.08 µM) of 0.501. For the same molecule, the relative viability (NCI-H322M; first compound 0.253 µM) was 0.5, the relative viability (NCI-H322M; first compound 0.8 µM) was 0.519 and the relative viability (NCI-H322M; first compound 2.53 µM) was 0.561. The relative viability (NCI-H2228; first compound 0.08 µM) was 0.398, the relative viability (NCI-H2228; first compound 0.253 µM) was 0.62 and the relative viability (NCI-H2228; first compound 0.8 µM) was 0.572. The relative viability (NCI-H2228; first compound 2.53 µM) was 0.49, the relative viability (HCC-15; first compound 0.08 µM) was 0.397 and the relative viability (HCC-15; first compound 0.253 µM) was 0.412. It also gave a relative viability (HCC-15; first compound 0.8 µM) of 0.414 and a relative viability (HCC-15; first compound 2.53 µM) of 0.319.
